From patent publication US12138336B2, “Personal care composition comprising water insoluble solid organic compound” (The Procter & Gamble Company, priority 2018, dated 2024)
In brackets after ≈: the same amount, converted by molar mass. Read-outs that look alike come from different tables or passages of the source.

Columns and labels:
[1] = known property; cited from earlier work
[2] = Crystals of the solid organic compound present in the composition at 25° C. or not; assay type: physicochemical; settings: added dissolved in ethanol/water mixture; cationic surfactant and high melting point fatty compounds; especially at higher amount
[3] = Water solubility at 25° C.; assay type: physicochemical; settings: for solubility: water, 25 °C
[4] = Di-electric constant, BI-870 Liquid Dielectric Constant Meter; assay type: physicochemical; settings: third liquid compounds; room temperature (23.1-23.4° C.)
Method: Dielectric constant is measured at room temperature (23.1 ˜23.4° C.) using BI-870 Liquid Dielectric Constant Meter (Brookhaven Instruments, Corp., New York).

[5] = solid organic compounds, 25° C.
[6] = first liquid oily compounds, read-out: Solubility in H2O
[7] = third liquid compounds, read-out: Solubility in H2O

In the case of Cc1cc(CC(C)CC(C)(C)C)n(O)c(=O)c1.NCCO (stereo not shown) [Piroctone Olamine], the “Solubility in water, in words” value [1] is given as “very limited solubility in water”, the “Crystal formation in aqueous hair conditioning compositions” value [2] is given as “forms crystals” and the “Water Solubility” value [3, 5] is given as 30 µg/mL.
In the case of Cc1cc(C2CCCCC2)n(O)c(=O)c1 [Ciclopirox Olamine, reference compound], the “Water Solubility” value [3, 5] is reported as 4450 µg/mL.
With C=CC(C)CCCC(C)(C)O (stereo not shown) [Dihydro Myrcenol] the “Solubility in H2O” value ([3]; first liquid oily compounds) was “Negligible (lower than 0.1) g/L”.
With CCCCCCCCCCCC(=O)N(C)CC(=O)OC(C)C [Isoropyl N-Lauroyl Sarcosinate] the “Solubility in H2O” value ([3]; first liquid oily compounds) was “Negligible (lower than 0.1) g/L”.
Work on CCCCCCC(C=O)=Cc1ccccc1 [Hexyl Cinnamic Aldehyde] yielded a solubility [3, 6] of 2.75 µg/mL (≈ 12.7 µM).
In the case of Cc1cc(C2CCCCC2)n(O)c(=O)c1 [Ciclopirox, reference compound], the “Water Solubility” value [3, 5] is reported as 1410 µg/mL.
OCc1ccccc1 [Benzyl Alcohol] gave a Di-electric constant [4] of 13.69 and a solubility [3, 7] of 43000 µg/mL (≈ 398000 µM).
Work on Cc1cc(CC(C)CC(C)(C)C)n(O)c(=O)c1 (stereo not shown) [Piroctone, reference compound] yielded a solubility ([3]; solid organic compounds, 25° C., read-out: Water Solubility) of 240 µg/mL (≈ 1010 µM).
In the case of CCCCCC1C(=O)CCC1CC(=O)OC (stereo not shown) [Methyl Dihydro Jasmonate], the solubility [3, 6] is reported as 91.7 µg/mL (≈ 405 µM).
OCCOc1ccccc1 [Phenoxyethanol] showed a solubility [3, 7] of 26000 µg/mL (≈ 188000 µM).
